Source: patent US11566022B2, “3-(5-methoxy-1-oxoisoindolin-2-yl)piperidine-2,6-dione derivatives and uses thereof” (NOVARTIS AG, priority 2019, dated 2023)
Read-outs that look alike come from different tables or passages of the source.

Molecular target: HiBit-WIZ fusion protein (Homo sapiens, UniProt O95785+Q96SW2)
Experiment: Quantification of WIZ protein levels in HiBit tag fusion protein assay (WIZ HiBit assay in 293T cells)
Type: cell-based
Set-up: Dmax: dose or concentration left out as unconfirmed
Settings: for remaining activity at up to 25 µM / WIZ Amax: DMSO-normalized, curve-fitted percentage of WIZ-HiBit remaining at 25 uM; for remaining activity at up to 25 µM: read-out: WIZ Amax; for DC50: WIZ HiBit assay in 293T cells, 10-point, 5-fold dose response, highest concentration 25 μM, about 18 hours, read-out: WIZ AC50; for % degradation of WIZ (100-Amax): at 25 uM
[1] = HEK-293T, 100 minus Amax, 293T cells, read-out: % degradation of WIZ (100-Amax)

HiBit-WIZ fusion protein, sequence (O95785 whole entry, the tested form may be a part): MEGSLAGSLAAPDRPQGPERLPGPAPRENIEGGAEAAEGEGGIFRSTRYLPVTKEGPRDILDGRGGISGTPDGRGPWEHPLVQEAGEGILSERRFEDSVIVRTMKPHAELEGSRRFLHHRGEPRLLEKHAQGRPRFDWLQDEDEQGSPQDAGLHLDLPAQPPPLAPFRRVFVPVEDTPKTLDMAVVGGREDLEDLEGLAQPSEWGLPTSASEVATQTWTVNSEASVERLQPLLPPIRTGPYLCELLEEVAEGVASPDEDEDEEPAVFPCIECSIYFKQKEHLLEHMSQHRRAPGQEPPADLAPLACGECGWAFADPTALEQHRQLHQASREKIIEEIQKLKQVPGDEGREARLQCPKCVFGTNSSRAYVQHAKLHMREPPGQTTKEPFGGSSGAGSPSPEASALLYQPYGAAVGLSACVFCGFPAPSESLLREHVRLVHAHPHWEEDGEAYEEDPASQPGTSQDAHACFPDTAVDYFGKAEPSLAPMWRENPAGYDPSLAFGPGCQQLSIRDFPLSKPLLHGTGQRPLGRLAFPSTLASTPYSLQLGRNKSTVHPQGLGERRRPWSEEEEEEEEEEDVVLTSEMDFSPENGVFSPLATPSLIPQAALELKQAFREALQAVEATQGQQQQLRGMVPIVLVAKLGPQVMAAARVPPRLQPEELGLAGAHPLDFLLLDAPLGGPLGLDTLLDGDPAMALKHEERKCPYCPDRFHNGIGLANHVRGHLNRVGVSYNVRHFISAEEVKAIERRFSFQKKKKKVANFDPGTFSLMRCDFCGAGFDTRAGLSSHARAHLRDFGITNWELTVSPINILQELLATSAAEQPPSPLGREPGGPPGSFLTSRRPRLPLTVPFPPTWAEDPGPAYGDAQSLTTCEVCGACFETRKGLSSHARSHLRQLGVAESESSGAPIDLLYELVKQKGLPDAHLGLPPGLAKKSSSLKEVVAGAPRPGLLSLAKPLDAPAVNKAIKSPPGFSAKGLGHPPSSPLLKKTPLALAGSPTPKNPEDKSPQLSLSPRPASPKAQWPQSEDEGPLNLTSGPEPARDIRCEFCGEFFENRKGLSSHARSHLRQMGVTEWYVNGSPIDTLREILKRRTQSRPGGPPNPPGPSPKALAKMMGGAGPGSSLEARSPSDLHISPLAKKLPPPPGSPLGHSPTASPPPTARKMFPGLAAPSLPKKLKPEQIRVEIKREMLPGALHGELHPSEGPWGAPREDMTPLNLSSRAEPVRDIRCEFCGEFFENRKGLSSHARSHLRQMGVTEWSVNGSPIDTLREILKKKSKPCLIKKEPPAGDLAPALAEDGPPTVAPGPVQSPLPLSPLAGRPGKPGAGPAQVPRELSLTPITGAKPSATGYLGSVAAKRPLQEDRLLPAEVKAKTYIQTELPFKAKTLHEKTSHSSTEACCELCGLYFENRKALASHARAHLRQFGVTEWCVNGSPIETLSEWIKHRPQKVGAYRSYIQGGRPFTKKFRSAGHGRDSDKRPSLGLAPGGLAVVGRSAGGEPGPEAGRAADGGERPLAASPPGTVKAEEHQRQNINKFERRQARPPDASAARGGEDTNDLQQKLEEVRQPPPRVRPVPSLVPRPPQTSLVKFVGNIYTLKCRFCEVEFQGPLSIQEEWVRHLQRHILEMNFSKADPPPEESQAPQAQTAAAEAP
HiBit-WIZ fusion protein, sequence (Q96SW2 whole entry, the tested form may be a part): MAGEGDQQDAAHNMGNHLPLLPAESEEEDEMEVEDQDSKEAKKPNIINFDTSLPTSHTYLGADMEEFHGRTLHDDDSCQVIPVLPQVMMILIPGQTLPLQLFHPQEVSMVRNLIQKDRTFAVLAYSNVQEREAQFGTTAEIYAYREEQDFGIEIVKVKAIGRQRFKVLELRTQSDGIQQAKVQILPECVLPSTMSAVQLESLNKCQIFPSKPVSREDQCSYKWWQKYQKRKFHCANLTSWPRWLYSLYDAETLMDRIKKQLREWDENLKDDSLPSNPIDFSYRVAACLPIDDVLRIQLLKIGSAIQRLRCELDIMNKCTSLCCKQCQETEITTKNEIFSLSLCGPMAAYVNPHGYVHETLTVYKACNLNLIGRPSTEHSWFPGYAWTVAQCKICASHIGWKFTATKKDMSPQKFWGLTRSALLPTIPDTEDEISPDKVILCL
HiBit-WIZ fusion protein, sequence (Q16531 whole entry partner, the tested form may be a part): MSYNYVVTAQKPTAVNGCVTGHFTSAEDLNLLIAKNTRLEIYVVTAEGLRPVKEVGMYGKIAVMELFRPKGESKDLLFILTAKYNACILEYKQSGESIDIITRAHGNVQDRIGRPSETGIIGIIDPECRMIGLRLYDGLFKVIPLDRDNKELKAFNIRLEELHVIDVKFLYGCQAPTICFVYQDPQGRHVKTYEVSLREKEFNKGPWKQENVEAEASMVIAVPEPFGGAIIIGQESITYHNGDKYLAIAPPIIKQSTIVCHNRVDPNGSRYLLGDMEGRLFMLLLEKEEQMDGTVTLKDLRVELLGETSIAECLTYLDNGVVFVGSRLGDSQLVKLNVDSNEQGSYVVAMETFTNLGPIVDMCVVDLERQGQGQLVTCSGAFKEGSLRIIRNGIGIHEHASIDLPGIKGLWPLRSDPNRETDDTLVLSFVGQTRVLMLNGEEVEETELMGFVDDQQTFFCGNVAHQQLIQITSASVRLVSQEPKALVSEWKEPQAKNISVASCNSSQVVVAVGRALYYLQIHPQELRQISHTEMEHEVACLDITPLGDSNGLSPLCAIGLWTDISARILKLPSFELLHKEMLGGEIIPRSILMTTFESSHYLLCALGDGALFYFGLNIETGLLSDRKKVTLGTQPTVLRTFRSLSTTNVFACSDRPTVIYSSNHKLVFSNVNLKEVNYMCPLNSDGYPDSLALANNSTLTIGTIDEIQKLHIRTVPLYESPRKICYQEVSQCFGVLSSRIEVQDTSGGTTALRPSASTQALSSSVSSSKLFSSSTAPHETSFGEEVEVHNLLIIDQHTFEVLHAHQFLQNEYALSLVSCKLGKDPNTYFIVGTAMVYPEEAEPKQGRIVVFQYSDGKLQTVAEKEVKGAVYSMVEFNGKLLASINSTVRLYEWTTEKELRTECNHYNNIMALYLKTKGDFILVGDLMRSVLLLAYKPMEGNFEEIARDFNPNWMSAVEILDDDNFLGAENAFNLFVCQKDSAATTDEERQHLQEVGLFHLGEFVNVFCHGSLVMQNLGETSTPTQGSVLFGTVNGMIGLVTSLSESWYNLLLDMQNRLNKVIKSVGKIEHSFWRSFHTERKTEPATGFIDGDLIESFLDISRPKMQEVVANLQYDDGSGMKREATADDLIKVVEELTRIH

| SMILES | Dmax [1] [%] | remaining activity at up to 25 µM (HEK-293T, 293T cells) [%] | DC50 [nM] | Dmax (HEK-293T, read-out: % degradation of WIZ (100-Amax), 100 minus Amax, 293T cells) [%] | remaining activity (HEK-293T, read-out: WIZ Amax, DMSO-normalized, curve-fitted percentage of WIZ-HiBit remaining at 25 uM, 293T cells) [%] | % degradation of WIZ (100-Amax) (100 minus Amax, 293T cells) [%] | WIZ Amax (293T cells) [%] |
| --- | --- | --- | --- | --- | --- | --- | --- |
| COc1ccc(CN2CCCC[C@@H]2COc2ccc3c(c2)CN(C2CCC(=O)NC2=O)C3=O)cc1C#N (stereo partly drawn) [Compound I-196, 5-(((2R)-2-(((2-(2,6-dioxopiperidin-3-yl)-1-oxoisoindolin-5-yl)oxy)methyl)piperidin-1-yl)methyl)-2-methoxybenzonitrile] | 78.8 | 21.2 | 4.2 | – | – | – | – |
| CC(C)n1cc(C(=O)N2CCCC[C@H]2COc2ccc3c(c2)CN(C2CCC(=O)NC2=O)C3=O)cn1 (stereo partly drawn) [Compound I-72dg] | 21.1 | 78.9 | > 25000 | – | – | – | – |
| CCN1[C@@H]2CC[C@@H](C2)[C@H]1COc1ccc2c(c1)CN(C1CCC(=O)NC1=O)C2=O (stereo partly drawn) [Compound I-223, 3-(5-(((1R,3S,4S)-2-ethyl-2-azabicyclo[2.2.1]heptan-3-yl)methoxy)-1-oxoisoindolin-2-yl)piperidine-2,6-dione] | 82.8 | 17.1 | 72 | – | – | – | – |
| O=C1CCC(N2Cc3cc(OC[C@H]4CCCCN4CC4CCOC4)ccc3C2=O)C(=O)N1 (single isomer, unassigned) [Compound I-211] | 53.9 | 46.1 | 150 | – | – | – | – |
| CC(C)(C)OC(=O)N1CCN(c2ccccc2CN2CCCC[C@@H]2COc2ccc3c(c2)CN(C2CCC(=O)NC2=O)C3=O)CC1 (stereo partly drawn) [Compound I-105, Tert-butyl 4-(2-(((2R)-2-(((2-(2,6-dioxopiperidin-3-yl)-1-oxoisoindolin-5-yl)oxy)methyl)piperidin-1-yl)methyl)phenyl)piperazine-1-carboxylate] | 94.8 | 5.23 | 55 | – | – | – | – |
| O=C1CCC(N2Cc3cc(OC[C@@H]4CCCCN4C(=O)c4snnc4-c4ccccc4)ccc3C2=O)C(=O)N1 (stereo partly drawn) [Compound I-72fq] | 0.3 | 99.7 | > 25000 | – | – | – | – |
| O=C1CCC(N2Cc3cc(OC[C@@H]4CCCCN4C(=O)c4cccc(N5CCOCC5)n4)ccc3C2=O)C(=O)N1 (stereo partly drawn) [Compound I-72ae] | 14.7 | 85.3 | > 25000 | – | – | – | – |
| COc1cc(C#N)ccc1CN1CCCC[C@H]1COc1ccc2c(c1)CN(C1CCC(=O)NC1=O)C2=O (stereo partly drawn) [Compound I-50r] | 34.4 | 65.6 | > 25000 | – | – | – | – |
| O=C1CCC(N2Cc3cc(OC[C@@H]4CCCCN4Cc4cnn(C5CCCCC5)c4)ccc3C2=O)C(=O)N1 (stereo partly drawn) [Compound I-50p] | 93.2 | 6.8 | 47 | – | – | – | – |
| CC(C)(C#N)c1cc(C(=O)N2CCCC[C@H]2COc2ccc3c(c2)CN(C2CCC(=O)NC2=O)C3=O)ccn1 (stereo partly drawn) [Compound I-72be] | 11.8 | 88.2 | > 25000 | – | – | – | – |
| CCN1CCC(c2ccc(CN3CCCC[C@@H]3COc3ccc4c(c3)CN(C3CCC(=O)NC3=O)C4=O)cc2)CC1 (stereo partly drawn) [Compound I-129, 3-(5-(((R)-1-(4-(1-ethylpiperidin-4-yl)benzyl)piperidin-2-yl)methoxy)-1-oxoisoindolin-2-yl)piperidine-2,6-dione] | – | – | 46 | 67.7 | 32.3 | – | – |
| CCN1CCN(c2ccc(CN3CCCC[C@@H]3COc3ccc4c(c3)CN(C3CCC(=O)NC3=O)C4=O)cn2)CC1 (stereo partly drawn) [Compound I-191, 3-(5-(((R)-1-((6-(4-ethylpiperazin-1-yl)pyridin-3-yl)methyl)piperidin-2-yl)methoxy)-1-oxoisoindolin-2-yl)piperidine-2,6-dione] | 67.2 | 32.9 | 150 | – | – | – | – |
| COc1ccc(CN2CCCC[C@H]2COc2ccc3c(c2)CN(C2CCC(=O)NC2=O)C3=O)cc1F (stereo partly drawn) [Compound I-50a] | 52.2 | 47.8 | > 25000 | – | – | – | – |
| Cn1nc(C(=O)N2CCCC[C@H]2COc2ccc3c(c2)CN(C2CCC(=O)NC2=O)C3=O)cc1-c1ccccc1 (stereo partly drawn) [Compound I-72ir] | 35.7 | 64.3 | > 25000 | – | – | – | – |
| CN1CCCC1C(=O)N1CCCC[C@@H]1COc1ccc2c(c1)CN(C1CCC(=O)NC1=O)C2=O (stereo partly drawn) [Compound I-72dd] | 19.5 | 80.5 | > 25000 | – | – | – | – |
| O=C1CCC(N2Cc3cc(OC[C@H]4CCCCN4Cc4c[nH]cn4)ccc3C2=O)C(=O)N1 (stereo partly drawn) [Compound I-50ds] | 70.8 | 29.2 | 3040 | – | – | – | – |
| Cc1ncc(CN2CCCC[C@@H]2COc2ccc3c(c2)CN(C2CCC(=O)NC2=O)C3=O)[nH]1 (stereo partly drawn) [Compound I-50bp] | 65.9 | 34.1 | 7000 | – | – | – | – |
| CC(C)n1nccc1C(=O)N1CCCC[C@H]1COc1ccc2c(c1)CN(C1CCC(=O)NC1=O)C2=O (stereo partly drawn) [Compound I-72ez] | 0 | 100 | > 25000 | – | – | – | – |
| N#Cc1cccc(CN2CCCC[C@H]2COc2ccc3c(c2)CN(C2CCC(=O)NC2=O)C3=O)c1 (stereo partly drawn) [Compound I-50bm] | 36 | 64 | > 25000 | – | – | – | – |

| SMILES | Dmax [1] [%] | remaining activity at up to 25 µM (HEK-293T, 293T cells) [%] | DC50 [nM] | Dmax (HEK-293T, read-out: % degradation of WIZ (100-Amax), 100 minus Amax, 293T cells) [%] | remaining activity (HEK-293T, read-out: WIZ Amax, DMSO-normalized, curve-fitted percentage of WIZ-HiBit remaining at 25 uM, 293T cells) [%] | % degradation of WIZ (100-Amax) (100 minus Amax, 293T cells) [%] | WIZ Amax (293T cells) [%] |
| --- | --- | --- | --- | --- | --- | --- | --- |
| CC(C)(C)OC(=O)N1CCC(c2ccc(CN3CCCC[C@@H]3COc3ccc4c(c3)CN(C3CCC(=O)NC3=O)C4=O)cc2)CC1 (stereo partly drawn) [Compound I-127, Tert-butyl 4-(4-(((2R)-2-(((2-(2,6-dioxopiperidin-3-yl)-1-oxoisoindolin-5-yl)oxy)methyl)piperidin-1-yl)methyl)phenyl)piperidine-1-carboxylate] | 93.4 | 6.64 | 1.9 | – | – | – | – |
| O=C1CCC(N2Cc3cc(OC[C@H]4CCCCN4Cc4cccc(Cn5cccn5)c4)ccc3C2=O)C(=O)N1 (stereo partly drawn) [Compound I-50en] | 99.8 | 0.2 | 4 | – | – | – | – |
| CO[C@H]1C[C@H](CN2CCCC[C@@H]2COc2ccc3c(c2)CN(C2CCC(=O)NC2=O)C3=O)C1 (stereo partly drawn) [Compound I-97, 3-(5-(((R)-1-(((1r,3R)-3-methoxycyclobutyl)methyl)piperidin-2-yl)methoxy)-1-oxoisoindolin-2-yl)piperidine-2,6-dione] | 91.8 | 8.17 | 140 | – | – | – | – |
| CCC(Oc1ccc2c(c1)CN(C1CCC(=O)NC1=O)C2=O)[C@@H]1CCCN1 (single isomer, unassigned) [Compound I-44] | – | 89.7 | > 25000 | – | – | 10.3 | – |
| CCOC(=O)c1cccc2[nH]nc(CN3CCCC[C@@H]3COc3ccc4c(c3)CN(C3CCC(=O)NC3=O)C4=O)c12 (stereo partly drawn) [Compound I-50er] | 89.8 | 10.2 | 920 | – | – | – | – |
| COc1cc(CN2CCCC[C@@H]2COc2ccc3c(c2)CN(C2CCC(=O)NC2=O)C3=O)ccc1C#N (stereo partly drawn) [Compound I-192] | 62.2 | 37.8 | 25 | – | – | – | – |
| O=C1CCC(N2Cc3cc(OC[C@@H]4CCCCN4Cc4ccnc(O)c4)ccc3C2=O)C(=O)N1 (stereo partly drawn) [Compound I-50cv] | 42.6 | 57.4 | > 25000 | – | – | – | – |
| O=C1CCC(N2Cc3cc(OC[C@@H]4CCCCN4C(=O)c4ncn(-c5ccccc5)n4)ccc3C2=O)C(=O)N1 (stereo partly drawn) [Compound I-72dt] | 47.2 | 52.8 | > 25000 | – | – | – | – |
| O=C1CCC(N2Cc3cc(OC[C@@H]4CCCCN4Cc4cncnc4)ccc3C2=O)C(=O)N1 (stereo partly drawn) [Compound I-50cq] | 7.3 | 92.7 | > 25000 | – | – | – | – |
| O=C1CCC(N2Cc3cc(OC[C@H]4CCCCN4Cc4cncnc4)ccc3C2=O)C(=O)N1 (stereo partly drawn) [Compound I-50ce] | 43.9 | 56.1 | > 25000 | – | – | – | – |
| COc1ccc(CN2CCCC[C@H]2COc2ccc3c(c2)CN(C2CCC(=O)NC2=O)C3=O)cn1 (stereo partly drawn) [Compound I-50bf] | 50.9 | 49.1 | > 25000 | – | – | – | – |
| O=C1CCC(N2Cc3cc(OC[C@H]4CCCCN4Cc4ccc(-n5nccn5)cc4)ccc3C2=O)C(=O)N1 (stereo partly drawn) [Compound I-50eg] | 99.6 | 0.4 | 4 | – | – | – | – |
| O=C1CCC(N2Cc3cc(OC[C@@H]4CCCCN4C(=O)CCCn4cnnc4)ccc3C2=O)C(=O)N1 (stereo partly drawn) [Compound I-72fv] | 1.1 | 98.9 | > 25000 | – | – | – | – |
| CCN1CCC(F)(F)CC1COc1ccc2c(c1)CN(C1CCC(=O)NC1=O)C2=O (single isomer, unassigned) [I-252 (Isomer 2), 3-(5-((1-ethyl-4,4-difluoropiperidin-2-yl)methoxy)-1-oxoisoindolin-2-yl)piperidine-2,6-dione] | – | – | 11 | – | – | 77.1 | 22.9 |
| COc1ccc(CC(=O)N2CCCC[C@H]2COc2ccc3c(c2)CN(C2CCC(=O)NC2=O)C3=O)cn1 (stereo partly drawn) [Compound I-72hk] | 9.2 | 90.8 | > 25000 | – | – | – | – |
| CCN1CCC[C@H]1C(C)Oc1ccc2c(c1)CN(C1CCC(=O)NC1=O)C2=O (single isomer, unassigned) [Compound I-25] | – | – | > 25000 | – | – | 46.6 | 53.4 |
| N#Cc1cccc(Cn2cccc(CN3CCCC[C@@H]3COc3ccc4c(c3)CN(C3CCC(=O)NC3=O)C4=O)c2=O)c1 (stereo partly drawn) [Compound I-50cp] | 65.2 | 34.8 | 3530 | – | – | – | – |
| NS(=O)(=O)c1cc(CN2CCCC[C@H]2COc2ccc3c(c2)CN(C2CCC(=O)NC2=O)C3=O)ccc1Cl (stereo partly drawn) [Compound I-50bd] | 41.1 | 58.9 | > 25000 | – | – | – | – |
| CC(C)N1CCC(CN2CCCC[C@H]2COc2ccc3c(c2)CN(C2CCC(=O)NC2=O)C3=O)CC1 (stereo partly drawn) [Compound I-50cb] | 74.5 | 25.5 | 5800 | – | – | – | – |
